Measurements reported in patent publication US11077090B2, “Compounds and compositions and uses thereof” (Sunovion Pharmaceuticals Inc., priority 2016, dated 2021).

The compounds below were run on compound-treated mice (assay: Neuropharmacological assay (SmartCube): behavioral activity signature and minimal effective dose). Details: Mus musculus, ip, MED = dose having 50% or more total activity, read-out: Potency: minimal effective dose (MED).
Assay type: in vivo
Description: Neurosci. 2011 Sep. 9; 5:103 (doi: 10.3389/fnins.2011.00103) (“Roberds”). As reported in Roberds, because psychiatric diseases generally result from disorders of cell-cell communication or circuitry, intact systems are useful in detecting improvement in disease-relevant endpoints. These endpoints are typically behavioral in nature, often requiring human observation and interpretation. To facilitate testing of multiple compounds for behavioral effects relevant to psychiatric disease, PsychoGenics, Inc. (Tarrytown, N.Y., “PGI”) developed SmartCube™, an automated system in which behaviors of compound-treated mice are captured by digital video and analyzed with computer algorithms. (D. Brunner et al., Drug Discov. Today 2002, 7:S107-S112). PGI Analytical Systems uses data from SmartCube™ to compare the behavioral signature of a test compound to a database of behavioral signatures obtained using a large set of diverse reference compounds. (The composition of the database as well as validation of the method is further described in Roberds). In this way, the neuropharmacological effects of a test compound can be predicted by similarity to major classes of compounds, such as antipsychotics, anxiolytics and antidepressants.
The SmartCube™ system produces an activity signature indicating the probability that the activity of the test compound at the administered dose matches a given class of neuropharmacological agents. (See, e.g., Roberds, FIGS. 2 and 3). The test compound is simultaneously compared against multiple classes of agents; thus, a separate probability is generated for each behavioral effect measured (e.g., anxiolytic activity, analgesic activity, etc.). In the table below, these probabilities are reported for each behavioral effect measured as follows:
where LOQ is the limit of quantification.
Provided compounds were dissolved in a mixture of Pharmasolve™ (N-methyl-2-pyrrolidone), polyethylene glycol and propylene glycol, and were injected i.p. 15 min. before the behavioral test. For each compound, injections were administered at 3 different doses. For each behavioral effect measured, results for the most efficacious dose(s) are presented. In the table below, DP: anti-depressant; AX: anxiolytic; SD: sedative hypnotic; PS: anti-psychotic; MS: mood stabilizer; AD: ADHD; CE: cognitive enhancer; AG: analgesic; UN: uncharacterized CNS activity.
The potency of many of the compounds in the table was also determined in the SmartCube™ system. Test compounds were routinely examined at dose levels of 0.3, 1, 3, 10 and 30 mg per kg (mpk), although the dose range was increased or decreased if necessary to obtain a full dose response curve. A compound's minimal effective dose (MED) is a measure of the compounds potency. The MED was defined as the dose (in mpk) having 50% or more total activity in SmartCube.

| Compound | minimal effective dose [mg/kg] |
| --- | --- |
| Cc1ccc2c(c1)[C@H](N)CCOC2 (single isomer, unassigned) [Example 115] | 3 to 10 |
| Cc1ccc2c(c1)[C@@H](N)CCOC2 (single isomer, unassigned) [Example 116] | 3 to 10 |
| N[C@@H]1COCc2ccc(Cl)c(Cl)c21 (single isomer, unassigned) [Example 119] | < 3 |
| N[C@H]1COCc2ccc(Cl)c(Cl)c21 (single isomer, unassigned) [Example 120] | 3 to 10 |
| COc1ccc2c(c1)[C@H](N)COC2 (single isomer, unassigned) [Example 121] | < 3 |
| COc1ccc2c(c1)[C@@H](N)COC2 (single isomer, unassigned) [Example 122] | < 3 |
| Cc1cc(C)c2c(c1)[C@H](N)COC2 (single isomer, unassigned) [Example 125] | < 3 |
| Cc1cc(C)c2c(c1)[C@@H](N)COC2 (single isomer, unassigned) [Example 126] | < 3 |
| Cc1cccc2c1COC[C@H]2N (single isomer, unassigned) [Example 129] | 3 to 10 |
| Cc1cccc2c1COC[C@@H]2N (single isomer, unassigned) [Example 130] | 3 to 10 |
| Cc1cccc2c1[C@H](N)COC2 (single isomer, unassigned) [Example 133] | < 3 |
| Cc1cccc2c1[C@@H](N)COC2 (single isomer, unassigned) [Example 134] | 3 to 10 |

Same assay, conditions: i.p. 15 min before test, most efficacious dose(s)

| Compound | AD: ADHD (probability of activity signature) | AG: analgesic (probability of activity signature) | AX: anxiolytic (probability of activity signature) | CE: cognitive enhancer (probability of activity signature) | DP: anti-depressant (probability of activity signature) | MS: mood stabilizer (probability of activity signature) | PS: anti-psychotic (probability of activity signature) | SD: sedative hypnotic (probability of activity signature) | UN: uncharacterized CNS activity (probability of activity signature) |
| --- | --- | --- | --- | --- | --- | --- | --- | --- | --- |
| Cc1ccc2c(c1)[C@H](N)CCOC2 (single isomer, unassigned) [Example 115] | + (LOQ ≤ + <5%) | ++ (5% ≤ ++ <25%) | ++ (5% ≤ ++ <25%) | ++ (5% ≤ ++ <25%) | ++ (5% ≤ ++ <25%) | + (LOQ ≤ + <5%) | +++ (25% ≤ +++ <50%) | ++ (5% ≤ ++ <25%) | +++ (25% ≤ +++ <50%) |
| Cc1ccc2c(c1)[C@@H](N)CCOC2 (single isomer, unassigned) [Example 116] | + (LOQ ≤ + <5%) | ++ (5% ≤ ++ <25%) | ++ (5% ≤ ++ <25%) | ++ (5% ≤ ++ <25%) | ++ (5% ≤ ++ <25%) | + (LOQ ≤ + <5%) | ++ (5% ≤ ++ <25%) | +++ (25% ≤ +++ <50%) | +++ (25% ≤ +++ <50%) |
| N[C@@H]1COCc2ccc(Cl)c(Cl)c21 (single isomer, unassigned) [Example 119] | + (LOQ ≤ + <5%) | ++ (5% ≤ ++ <25%) | +++ (25% ≤ +++ <50%) | ++ (5% ≤ ++ <25%) | ++ (5% ≤ ++ <25%) | + (LOQ ≤ + <5%) | ++ (5% ≤ ++ <25%) | ++ (5% ≤ ++ <25%) | ++++ (50% ≤ ++++) |
| N[C@H]1COCc2ccc(Cl)c(Cl)c21 (single isomer, unassigned) [Example 120] | + (LOQ ≤ + <5%) | ++ (5% ≤ ++ <25%) | +++ (25% ≤ +++ <50%) | ++ (5% ≤ ++ <25%) | ++ (5% ≤ ++ <25%) | + (LOQ ≤ + <5%) | ++ (5% ≤ ++ <25%) | ++ (5% ≤ ++ <25%) | ++ (5% ≤ ++ <25%) |
| COc1ccc2c(c1)[C@H](N)COC2 (single isomer, unassigned) [Example 121] | + (LOQ ≤ + <5%) | ++ (5% ≤ ++ <25%) | ++ (5% ≤ ++ <25%) | ++ (5% ≤ ++ <25%) | ++ (5% ≤ ++ <25%) | + (LOQ ≤ + <5%) | ++ (5% ≤ ++ <25%) | ++ (5% ≤ ++ <25%) | +++ (25% ≤ +++ <50%) |
| COc1ccc2c(c1)[C@@H](N)COC2 (single isomer, unassigned) [Example 122] | + (LOQ ≤ + <5%) | ++ (5% ≤ ++ <25%) | +++ (25% ≤ +++ <50%) | +++ (25% ≤ +++ <50%) | ++ (5% ≤ ++ <25%) | + (LOQ ≤ + <5%) | ++ (5% ≤ ++ <25%) | ++ (5% ≤ ++ <25%) | +++ (25% ≤ +++ <50%) |
| Cc1cc(C)c2c(c1)[C@H](N)COC2 (single isomer, unassigned) [Example 125] | + (LOQ ≤ + <5%) | + (LOQ ≤ + <5%) | ++ (5% ≤ ++ <25%) | ++ (5% ≤ ++ <25%) | ++ (5% ≤ ++ <25%) | + (LOQ ≤ + <5%) | ++ (5% ≤ ++ <25%) | ++ (5% ≤ ++ <25%) | ++++ (50% ≤ ++++) |
| Cc1cc(C)c2c(c1)[C@@H](N)COC2 (single isomer, unassigned) [Example 126] | + (LOQ ≤ + <5%) | ++ (5% ≤ ++ <25%) | ++ (5% ≤ ++ <25%) | ++ (5% ≤ ++ <25%) | ++ (5% ≤ ++ <25%) | + (LOQ ≤ + <5%) | +++ (25% ≤ +++ <50%) | + (LOQ ≤ + <5%) | ++++ (50% ≤ ++++) |
| Cc1cccc2c1COC[C@H]2N (single isomer, unassigned) [Example 129] | + (LOQ ≤ + <5%) | ++ (5% ≤ ++ <25%) | +++ (25% ≤ +++ <50%) | ++ (5% ≤ ++ <25%) | ++ (5% ≤ ++ <25%) | + (LOQ ≤ + <5%) | ++ (5% ≤ ++ <25%) | ++ (5% ≤ ++ <25%) | +++ (25% ≤ +++ <50%) |
| Cc1cccc2c1COC[C@@H]2N (single isomer, unassigned) [Example 130] | + (LOQ ≤ + <5%) | ++ (5% ≤ ++ <25%) | ++ (5% ≤ ++ <25%) | ++ (5% ≤ ++ <25%) | ++ (5% ≤ ++ <25%) | + (LOQ ≤ + <5%) | +++ (25% ≤ +++ <50%) | ++ (5% ≤ ++ <25%) | ++++ (50% ≤ ++++) |
| Cc1cccc2c1[C@H](N)COC2 (single isomer, unassigned) [Example 133] | + (LOQ ≤ + <5%) | ++ (5% ≤ ++ <25%) | ++ (5% ≤ ++ <25%) | ++ (5% ≤ ++ <25%) | ++ (5% ≤ ++ <25%) | + (LOQ ≤ + <5%) | +++ (25% ≤ +++ <50%) | + (LOQ ≤ + <5%) | ++++ (50% ≤ ++++) |
| Cc1cccc2c1[C@@H](N)COC2 (single isomer, unassigned) [Example 134] | + (LOQ ≤ + <5%) | ++ (5% ≤ ++ <25%) | +++ (25% ≤ +++ <50%) | ++ (5% ≤ ++ <25%) | ++ (5% ≤ ++ <25%) | + (LOQ ≤ + <5%) | ++ (5% ≤ ++ <25%) | ++ (5% ≤ ++ <25%) | +++ (25% ≤ +++ <50%) |
